This note sets out measurements from publication PMC11793105, “A kalihinol analog disrupts apicoplast function and vesicular trafficking in P. falciparum malaria” (Science (New York, N.Y.), 2024).

Experiment [1] concerns P. falciparum W2 (MRA-157, chloroquine resistant). Description: SYBR Green I growth inhibition assay, W2. It is filed as cell-based, Plasmodium falciparum. Particulars: early-ring stage, 72 h exposure. The method, then:
Fig. 1. […] (B) SYBR Green–based dose response assays were conducted on early-ring stage parasites (6 hours after invasion). […] 3D7 WT (blue), NF54 (green), drug-resistant strains Dd2 (red), HB3 (black), W2 (gray), and D10-ACP-GFP (purple) lines (Sigmoidal, 4PL, X is concentration, n ≥ 3, nonlinear regression, CI: 95%). (C) Schematic diagram of the development of P. falciparum after two consecutive erythrocytic cycles. The time points at which MED6-189 was introduced are depicted in green. HPS, hours post synchronization. […] The images depict various developmental stages of the parasite’s intraerythrocytic life cycle. Bordered images represent time points when drug was first introduced (n = 3 biological replicates, P < 0.05).
Detailed information on materials and methods is available in the supplementary materials. […] P. knowlesi assays were quantitatively measured by flow cytometry using SYBR Green I and Mitrotracker Deep Red, as previously described ([84], [85]), on a Beckman Coulter CytoFLEX. […]
(§1) P. falciparum in vitro SYBR green fluorescence-based assays The anti-malarial activity of individual analogues were evaluated in-vitro against P. falciparum 3D7 (MRA-102, drug […]
(§2) green-I based fluorescence assay. Parasite growth rate and stages of development were determined via microscopy through Giemsa-stained smears of the cultures. […]

A further experiment concerns P. falciparum. Description: Drug-drug interaction (fractional inhibitory concentration, isobologram) assay. The experiment is classed as cell-based, Plasmodium falciparum. From the text: Fig. 2. […] Nuclei are stained with 4’,6-diamidino-2-phenylindole (DAPI; blue). […] (B) Dose-dependent interactions between MED6-189 (blue) and various antimalarials with known mechanisms of action (red). […] The regression line represents a nonlinear regression (variable slope with four parameters), with significant differences considered if P < 0.05. […] Isobologram curves are expected to be parallel to the diagonal for additive drug pairs, concave for synergistic drug pairs, and convex for antagonistic drug pairs. […] The analysis was performed using a two-way ANOVA, n = 3, with P < 0.05 significance.

Another experiment relates to THP1. The experiment can be described thus: Human cell line activity, THP1. As to conditions: THP-1, read-out: IC50 (µM) THP1. It is filed as cell-based.
The subject of experiment [2] is 3D7 Clone-Kalihinol Treated (MED6-189 resistant line). Description: SYBR Green dose response, MED6-189-selected resistant line. The experiment is classed as cell-based, Plasmodium falciparum. Particulars: resistant line after ~36 months of drug pressure.
From the text: To assess whether we could use the DMSO melting curves previously established for […] by Dziekan et al. ([49]), we calculated the difference in melting temperatures (ΔTm) between our DMSO dataset and Dziekan’s for 364 proteins for which Tm values were confidently calculated by mineCETSA (table S6).
Fig. 4. […] (C) Schematic representation of the CRISPR-Cas9–based replacement strategy used to introduce a deletion of the targeted repeat regions in the PfSec13 gene. The insertion was achieved through overlap extension polymerase chain reaction (PCR) of fragments directly upstream and downstream of the target segment and subsequently formed by primer overlap extension PCR to replicate the desired deletion. […] (D) Predicted structure of the SEC13 protein highlighting the seven amino acid tandem repeat regions targeted for deletion (red). […] Data were analyzed using a Sigmoidal, 4PL (X represents concentration, n = 3, nonlinear regression, CI: 95%).
as §1, §2

Take `[C-]#[N+][C@]1(C)CC[C@H]2[C@@H]([C@@H](C(C)C)CC[C@]2(C)[N+]#[C-])[C@H]1O` [MED6-189]: the IC50 (commonly the concentration that gives 50% inhibition) was 27 ± 5 nM in experiment [1] (Plasmodium falciparum, W2, 72 h); 26.7 nM in experiment [1]; 12 µM in the experiment with THP1; 58.1 nM in experiment [2] (3D7 Clone-Kalihinol Treated); about 60 nM in experiment [2] (Plasmodium falciparum, 3D7, 3D7 Clone-Kalihinol Treated). Moreover, the FIC score with P. falciparum (MED6-189 in combination with atovaquone (additive)) worked out at 0.91 ± 0.2; in the experiment on P. falciparum (MED6-189 in combination with chloroquine (additive)), 1.71 ± 0.4.
